# Results published in ChEMBL document CHEMBL3301361, “Experimental in vitro DMPK and physicochemical data on a set of publicly disclosed compounds”.
# Experiment: physchem
# Details: pH 7.4 buffer
row,Compound,solubility thermodynamic [µM]
1,Cn1cc(C2=C(c3cccc(NCC(O)CO)c3)C(=O)NC2=O)c2cc(F)ccc21 (centres undefined),4.4
2,O=C(c1ccc(F)cc1)C1CCN(C(=O)c2cc(F)cc(F)c2)CC1,6
3,Cc1cccc2c3cc(NC(=O)N4CCOCC4)ccc3n(C(C)C)c12,5.1
4,CN(C)CCCN(C)c1nc2cc(Cl)c(Cl)cc2nc1/C=C/c1ccccc1,5.8
5,Nc1ncc(-c2cnn(CCO)c2)cc1-c1nc2ccccc2o1,3.1
6,CN(c1ccnc(Nc2cccc(S(C)(=O)=O)c2)n1)c1c(Cl)ccc2c1OCO2,3.5
7,O=S(=O)(Nc1ccccn1)c1ccc(C2CCCCC2)cc1,2.8
8,CCn1c2ccccc2c2cc(NC(=O)c3cc(C)on3)ccc21,2.5
9,O=C(NCCSCc1c(F)cccc1Cl)Nc1ccccc1,5.1
10,Cc1ccc(-c2nnc(-c3ccccc3)o2)cc1,6.2
11,c1ccc(CSc2nnc(-c3ccco3)c(-c3ccco3)n2)cc1,5.2
12,CCOC(=O)Cc1csc(NC(=O)Nc2ccc(Cl)cc2)n1,2.6
13,CN(C(=O)c1ccco1)c1nnc(C23CC4CC(CC(C4)C2)C3)s1,3
14,O=S(=O)(NCc1cc(-c2ccccc2Cl)no1)c1ccc(Cl)cc1,3.1
15,O=S(=O)(Cc1cc(-c2ccccc2)no1)c1ccccc1,6.6
16,Oc1cc(-c2ccccc2)nc2ccc(Cl)cc12,5.9
17,CCOc1ccccc1C(=O)N1CCC(C(=O)c2ccc(F)cc2)CC1,5.8
18,O=C(c1ccc(F)cc1)C1CCN(C(=O)Nc2ccc(F)cc2)CC1,4.5
19,Cc1ccc(C)c(N(C)c2ccnc(Nc3cc(N4CCOCC4)cc(N4CCOCC4)c3)n2)c1,5.9
20,CN(c1ccc(Cl)c(CO)c1)c1ccnc(Nc2cc(N3CCOCC3)cc(N3CCOCC3)c2)n1,3.1
21,COc1cc(N2CCNC(=O)C2)ccc1Nc1ncc(Cl)c(-c2cnc3ccccn23)n1,4.9
22,COc1cc(N2CC3COCC(C2)N3)ccc1Nc1ncc(Cl)c(-c2cnc3ccccn23)n1,2.6
23,COc1cc(N2CCN(CC(=O)N(C)C)CC2)ccc1Nc1ncc(Cl)c(-c2cnc3ccccn23)n1,5

row,Compound,solubility thermodynamic [µM]
1,COc1cc(N2CCN(C(C)=O)CC2)ccc1Nc1ncc(Cl)c(-c2cnc3c(F)cccn23)n1,2.8
2,O=C(Nc1cccc(O)c1)c1ccc(OCCCN2CCCC2)cc1OCc1ccc(F)cc1,5
3,C[C@@H](c1ccc(-c2ccc(F)cc2F)cc1)N1CC[C@](CCO)(c2ccc(F)cc2)OC1=O,2.5
4,C[C@@H](c1ccc(-c2ccc(F)cc2F)cc1)N1CC[C@@](CCO)(c2ccc(F)cc2)OC1=O,5.2
5,COc1cccc(NC(=O)Cn2cc(Nc3ncnc4cc(OC)c(OC)cc34)cn2)c1,4.4
6,COc1cccc(NC(=O)Cn2cc(Oc3ncnc4cc(OC)c(OC)cc34)cn2)c1,2.9
7,COCCOc1cc2c(Oc3cnn(CC(=O)Nc4cccc(OC)c4)c3)ncnc2cc1OC,3.1
8,O=C(Nc1ccccc1)c1ccc2cccc(O)c2n1,6.6
9,CN1CCC(Oc2cccc3ncnc(Nc4ccc(OCc5cscn5)c(Cl)c4)c23)CC1,4.9
10,CCn1cc(NC(=O)Cc2ccc(Oc3ccnc4cc(OC)ccc34)cc2OC)cn1,3.2
11,CCc1cc(NC(=O)Cc2ccc(Oc3ccnc4cc(OC)ccc34)cc2OC)no1,4.2
12,CCc1ccc(-c2cc(O)c3ccccc3n2)cc1,4
13,COc1cc2ncnc(Nc3ccc(F)c(Cl)c3)c2cc1CN1CCC[C@@H]1C(N)=O,5.1
14,CC(C)(C)OC(=O)N1CCN(c2cnc(OCc3ccc(S(C)(=O)=O)cc3)cn2)CC1,4.7
15,C[C@@H]1CN(c2ncc(OCc3ccc(S(C)(=O)=O)cc3)cn2)CCN1C(=O)OC(C)(C)C,3.3
16,C[C@@H]1CN(C(=O)OC(C)(C)C)C[C@H](C)N1c1ncc(OCc2ccc(S(C)(=O)=O)cc2)cn1,4.1
17,C[C@@H]1CN(C(=O)OC(C)(C)C)CCN1c1ncc(OCC2CCN(S(C)(=O)=O)CC2)cn1,5
18,CCc1cc(Nc2nc(NCc3cc(-c4ccccn4)no3)ncc2Br)n[nH]1,3.8
19,COc1cc(CCc2cc(Nc3ccnc(NCc4cc(C)on4)n3)n[nH]2)cc(OC)c1,4.3
20,Oc1cc(-c2ccc3c(c2)OCO3)nc2ccccc12,6.2
21,OC1CCN(CCOc2n[nH]c3ncnc(Nc4ccc(OCc5cccc(F)c5)c(Cl)c4)c23)CC1,4.5
22,C[C@H](Oc1cccc2ncnc(Nc3ccc(OCc4ccccn4)c(Cl)c3)c12)C(=O)N(C)C,2.9
23,C[C@@H](Oc1cccc2ncnc(Nc3ccc4c(cnn4Cc4ccccn4)c3)c12)C(N)=O,4

row,Compound,solubility thermodynamic [µM]
1,CNC(=O)[C@@H](C)Oc1cccc2ncnc(Nc3ccc4c(cnn4Cc4ccccn4)c3)c12,6
2,C[C@@H](Oc1cccc2ncnc(Nc3ccc4c(cnn4Cc4cccc(F)c4)c3)c12)C(=O)N(C)C,2.6
3,CNC(=O)c1ccc(CN2CCC(c3ccc(C(=O)Nc4ccccc4N)cc3)CC2)cc1,4.8
4,Cc1ccc(Oc2ccc(Nc3ncnc4cccc(O[C@H](C)C(=O)NCCO)c34)cc2C)cn1,4.2
5,CO[C@]1(c2cc(F)cc(S(=O)(=O)c3ccc(/C(C)=N/O)cc3)c2)CCO[C@@H](C)C1,4.7
6,O=C(N[C@@H](Cc1ccccc1)C(=O)N1CCC(O)CC1)c1cc2cc(Cl)ccc2[nH]1,5.1
7,CC(C)n1c2ccccc2c2c(F)c(NC(=O)N3CCOCC3)c(F)cc21,4.6
8,Cc1c(Br)sc2nc(O)c(-c3ccccc3)c(O)c12,3.9
9,COC[C@@H](C(N)=O)N(C)Cc1cc2c(Nc3cccc(Cl)c3F)ncnc2cc1OC,3.8
10,COc1ccc(I)c(Sc2nc3c(N)ncnc3n2CCNCC(C)(C)C)c1,4
11,COc1cc(Nc2ncnc3[nH]nc(OCCN4CCC(O)CC4)c23)ccc1OCc1cccc(F)c1,5.6
12,Nc1ccccc1NC(=O)c1ccc(C2CCN(Cc3ccc(C(=O)NC4CC4)cc3)CC2)cc1,6.6
13,CCCCC(CC)CNC(=O)c1ccc2c(c1)c(Cc1ccc(C(=O)NS(=O)(=O)c3ccccc3C)cc1OC)cn2C (centres undefined),6.5
14,CN(C)C(=O)[C@H](Cc1ccccc1)NC(=O)c1cc2cc(Cl)ccc2[nH]1,2.6
15,CC(C)Oc1cc(OCCN2CCOCC2)cc2ncnc(Nc3c(Cl)ccc4c3OCO4)c12,4.4
16,CCOC(=O)c1nn(-c2ccccc2)c(=O)c2c(N)scc12,6.2
17,COc1cc2ncnc(Nc3ccc(C)c(O)c3)c2cc1OC,4.4
18,CNS(=O)(=O)c1ccc(Nc2nccc(-c3cnc(C)n3C)n2)cc1,2.7
19,CC1(C)Oc2ncnc(N)c2N=C1c1ccc(C23CCC(C(=O)O)(CC2)CC3)cc1,3.2
20,COc1cc2nccc(Nc3ccc(Oc4ccccc4)cc3)c2cc1OC,2.6
21,COc1cc2ncnc(Nc3ccc(F)c(Cl)c3)c2cc1OCCCn1ccnc1,2.5
22,NS(=O)(=O)c1ccc(Nc2nccc(-c3cnc4ccccn34)n2)cc1,6.5
23,O=C(Nc1cc(Cl)cc2c1[nH]c1cnccc12)c1cccnc1,3.9
